Measurements taken from US20130137573A1, “HERBICIDAL COMPOSITIONS COMPRISING, AND METHODS OF USE OF, HERBICIDALLY ACTIVE PYRANDIONES” (priority 2009, published 2013).

How the values were obtained:
[1] = test system: Leptochloa chinensis (LEFCH); assay: Biological Example 1 (Test 125): visual herbicidal damage to flooded LEFCH; type: in vivo; conditions: 200 g/ha fenoxasulfone applied alone, 14 DAA
Procedure: (§1) Rice seeds, variety IR-64 (an indica type of rice), were sown in seed trays. After 7 days the resulting plants were transplanted as 3 groups of 2 plants, into pots containing a standard sandy loam soil saturated with water replicating swampy conditions. These were grown on for a further 9 days in a glasshouse bay (30/20° C. day/night; 18/6 hours light/dark; 75% humidity). Leptochloa chinensis (LEFCH) and Echinochloa crus-galli (ECHCG) were sown as 2 separate groups of approx 10-20 seeds into pots 13 days prior to application of the test substances, in the same glasshouse conditions as the rice. Therefore, each pot of weeds contained a group of LEFCH and a separate group of ECHCG. All pots of rice and all pots of weeds were flooded to 2-3 cm water depth the day prior to application of the test substances. Growth stages at time of application were as follows: Rice: from 2 leaves on the main stem up to tillering; ECHCG: from 2 leaves on the main stem up to tillering; LEFCH: 2-3 leaves.
Test solutions were prepared by mixing the appropriate aliquots of the test substances in deionised water to give the desired treatment concentration. Most of the test substances were used as formulated products. Specifically, compound A-13 was applied as the EC050 formulation disclosed in Formulation Example 1 herein (EC=emulsifiable concentrate). […]

[2] = test system: Echinochloa crus-galli (ECHCG); assay: Biological Example 1 (Test 125): visual herbicidal damage to flooded ECHCG; type: in vivo; conditions: 200 g/ha fenoxasulfone applied alone, 14 DAA
Procedure: as §1
Test solutions were prepared by mixing the appropriate aliquots of the test substances in deionised water to give the desired treatment concentration. Most of the test substances were used as formulated products. Specifically, compound A-13 was applied as the EC050 formulation disclosed in Formulation Example 1 herein (EC=emulsifiable concentrate). Reference compound A-4 was applied as the EC050 formulation disclosed in Reference Formulation Example 2 herein. Pyroxasulfone (a comparator co-herbicide) was applied as the SC050 formulation disclosed in Reference Formulation Example 6 herein (SC=Suspension concentrate). Imazosulfuron (a comparator co-herbicide) was applied as a GR0.25 formulation (GR=granule).
The test substances which were pure active ingredient (e.g. propyrisulfuron & fenoxasulfone & compound A-16) (labelled as ‘Technical’ in the following results table), were prepared by dissolving in 10.56% Emulsogen EL™ (castor oil ethoxylate, CAS Registry number 61791-12-6), 42.22% N-methylpyrrolidone and 42.22% dipropylene glycol mono-ethyl ether to give a stock solution containing 5% of the test substance and 95% of (Emulsogen EL™, N-methylpyrrolidone and dipropylene glycol mono-ethyl ether).
Application of the test substances was made by pipetting the required amount of the test solution or the test formulation gently into the flood water of the appropriate pot.
The test plants were then grown on in the same glasshouse conditions, and watered twice daily keeping the flood water at a depth of 2-3 cm.
A visual assessment of the % herbicidal damage was made 7 & 14 days after application […], and the results are presented herein as % visual herbicidal damage where 0=no damage to plants and 100=total kill.

## CCOc1cc(Cl)c(CS(=O)(=O)C2=NOC(C)(C)C2)cc1Cl [fenoxasulfone, reference compound]
[1]
  LEFCH control: 70%
[2]
  ECHCG control: 65%
